Where two headings read alike, the source gives them in different places.
Tests used:
Frog (Rana pipiens) Skin = settings: relative to alpha-MSH = 1.0; earlier studies; cited from earlier work
[1] = tested on: Lizard (Anolis carolinensis) Skin; settings: relative to alpha-MSH = 1.0; earlier studies; cited from earlier work
[2] = tested on: Lizard (Anolis carolinensis) Skin; type: cell-based; settings: for Biological Potency Lizard: relative to alpha-MSH = 1.0
Excerpt: Based upon the structural relationship of alpha-MSH (and its analogues and fragments) to its biological potency, using in vitro a frog skin bioassay system, the active site of alpha-MSH appears to be the common active core sequence suitably modified Ac-Met-Glu-His-Phe-Arg-Trp-Gly-NH₂. This fragment (Alpha-MSH₄₋₁₀) has been synthesized and tested for its melanocyte stimulating activity in frog skin and shown to be a weak agonist when compared to the native hormone. The amino acid exchanges in position 5(Glu) and 10(Gly) have not, previous to the making of the present invention, been investigated. […] The following table summarizes some of these studies.
The biological potencies of alpha-MSH, the linear, and the cyclic analogues were determined by their ability to stimulate melanosome dispersion in vitro in the frog and lizard bioassays. These in vitro assays provide clear cut dose response curves (between 2.5 x 10⁻¹¹ and 4 x 10⁻¹⁰ M) and can detect minimal concentration of alpha-MSH of about 10⁻¹¹ M. The assays are based upon the centrifugal dispersion of melanosomes (melanin granules) within the dendritic processes of integumental dermal melanophores leading to darkening of the skin. All the test solutions were prepared via serial dilutions from a stock solution (10⁻⁴ M). The frogs (Rans pipiens) used in these evaluations were obtained from Kons Scientific, Germantown, WI, and the lizards (Anolis carolinensis) were from the Snake Farm, La Place, LA.

Substance | Relative Potency Frog (Frog (Rana pipiens) Skin) | Relative Potency Lizard [1] | Residual Activity Lizard ([2]; cyclic analogues, p = prolonged action) | Biological Potency Lizard ([2]; cyclic analogues) | Residual Activity Lizard ([2]; linear analogues, P = prolonged action) | Biological Potency Lizard ([2]; linear analogues)
Ac-[Nle⁴]-alpha-MSH₄₋₁₁NH₂ | 0.002 | 1.0 | – | – | – | –
alpha-melanotropin [alpha-MSH] | 1.0 | 1.0 | p(-) | 1.0 | P(-) | 1.0
